Results from US20180099967A1, “FUSED TRICYCLIC HETEROCYCLIC COMPOUNDS AS HIV INTEGRASE INHIBITORS” (MERCK SHARP & DOHME CORP., priority 2015, published 2018).
Read-outs that look alike come from different tables or passages of the source.

System: HIV-1
Assay: microbe, parasite or virus in culture
Assay type: cell-based, HIV-1 (H9IIIB or NL4-3 virus)
Procedure: HIV-1 replication was monitored using MT4-gag-GFP clone D3 (hereafter designate MT4-GFP), which are MT-4 cells modified to harbor a GFP reporter gene, the expression of which is dependent on the HIV-1 expressed proteins tat and rev. Productive infection of an MT4-GFP cell with HIV-1 results in GFP expression approximately 24 h post-infection.
MT4-GFP cells were maintained at 37° C./5% CO2/90% relative humidity in RPMI 1640 supplemented with 10% fetal bovine serum, 100 U/ml penicillin/streptomycin, and 400 μg/ml G418 to maintain the reporter gene. For infections, MT4-GFP cells were placed in the same medium lacking G418 and infected overnight with H9IIIB or NL4-3 virus at an approximate multiplicity of infection of 0.01 in the same incubation conditions. Cells were then washed and resuspended in either RPMI 1640 containing no serum at 1.6×10^5 cells/mL (serum free conditions), 10% normal human serum at 1.6×10^5 cells/mL (10% NHS conditions) or in 100% normal human serum at 2×10^5 cells/mL (100% NHS conditions). Compound plates were prepared by dispensing compounds taken up in DMSO into wells of 384 well poly D lysine-coated plates (0.2 μl/well) using an ECHO acoustic dispenser. Each compound was tested in a 10 point serial 3-fold dilution (typical final concentrations: 4.2 μM-0.21 nM). Controls included no inhibitor (DMSO only) and a combination of three antiviral agents (efavirenz, indinavir, and the integrase strand transfer inhibitor L-002254051 at final concentrations of 4 μM each). Cells were added (50 μL/well) to compound plates and the infected cells were maintained at 37° C./5% CO2/90% relative humidity.
Infected cells were quantified at two time points, ˜48 h and ˜72 h post-infection, by counting the number of green cells in each well using an Acumen eX3 scanner. […] Inhibition of R0 is calculated for each well, and IC50 value was determined using non-linear 4-parameter curve fitting.

[1] = Human immunodeficiency virus 1, read-out: WILD TYPE CELL ASSAY Viking IP (0% NHS) (nM)
[2] = Human immunodeficiency virus 1, read-out: WILD TYPE CELL ASSAY Viking IP (100% NHS) (nM)
[3] = read-out: WILD TYPE CELL ASSAY Viking IP (0% NHS)
[4] = read-out: WILD TYPE CELL ASSAY Viking IP (100% NHS)

| Structure (SMILES) | IC50 [1] | IC50 [2] | IC50 [3] | IC50 [4] |
| --- | --- | --- | --- | --- |
| CCN1C[C@@H]2C[C@@H](NC(C)=O)c3c(C(=O)NCc4ccc(F)cc4F)c(=O)c(O)c(n32)C1=O [Compound 56] | 2 nM | 14 nM | – | – |
| CCN1C[C@@H]2C[C@@H](NC)c3c(C(=O)NCc4ccc(F)cc4F)c(=O)c(O)c(n32)C1=O [Compound 5] | 2 nM | 17 nM | – | – |
| CCN1C[C@@H]2CC(NC(=O)C(=O)N(C)C)c3c(C(=O)NCc4ccc(F)cc4F)c(=O)c(O)c(n32)C1=O (stereo partly shown) [Compound 59] | – | – | 6 nM | 34 nM |
| CCNC1CC2CN(CCOC)C(=O)c3c(O)c(=O)c(C(=O)NCc4ccc(F)cc4F)c1n32 (single isomer, unassigned) [Compound 67] | – | – | 7 nM | 31 nM |
| CCN1C[C@@H]2C[C@@H](N3CCCC3)c3c(C(=O)NCc4cccc(F)c4F)c(=O)c(O)c(n32)C1=O (single isomer, unassigned) [Compound 43] | 10 nM | 42 nM | – | – |
| CCN1C[C@H]2C[C@@H](NS(C)(=O)=O)c3c(C(=O)NCc4ccc(F)c(F)c4F)c(=O)c(O)c(n32)C1=O [Compound 48] | 7 nM | 23 nM | – | – |
| CCN1C[C@@H]2C[C@@H](N(C)C)c3c(C(=O)NCc4ccc(F)cc4)c(=O)c(O)c(n32)C1=O [Compound 39] | 3 nM | 22 nM | – | – |
| CCN[C@H]1C[C@@H]2CN(CC)C(=O)c3c(O)c(=O)c(C(=O)NCc4cccc(Cl)c4F)c1n32 [Compound 19] | 10 nM | 10900 nM | – | – |
| CCN1C[C@@H]2C[C@H](NC)c3c(C(=O)NCc4ccc(F)cc4F)c(=O)c(O)c(n32)C1=O [Compound 6] | 5 nM | 245 nM | – | – |
| CCN1C[C@H]2C[C@H](NCC3CC3)c3c(C(=O)NCc4ccc(F)cc4F)c(=O)c(O)c(n32)C1=O [Compound 23] | 43 nM | 1090 nM | – | – |
| CCN1C[C@H]2C[C@@H](NC(C)=O)c3c(C(=O)NCc4ccc(F)cc4F)c(=O)c(O)c(n32)C1=O [Compound 55] | 8 nM | 540 nM | – | – |
| CCN[C@@H]1C[C@@H]2CN(CC)C(=O)c3c(O)c(=O)c(C(=O)NCc4cccc(Cl)c4F)c1n32 [Compound 20] | 5 nM | 28 nM | – | – |
| CCN1C[C@@H]2C[C@H](NS(C)(=O)=O)c3c(C(=O)NCc4ccc(F)cc4F)c(=O)c(O)c(n32)C1=O [Compound 46] | 11 nM | 1040 nM | – | – |
| CCN1C[C@H]2C[C@H](NC)c3c(C(=O)NCc4ccc(F)cc4F)c(=O)c(O)c(n32)C1=O [Compound 7] | 2 nM | 3420 nM | – | – |
| CCN1C[C@H]2C[C@H](NS(C)(=O)=O)c3c(C(=O)NCc4ccc(F)cc4F)c(=O)c(O)c(n32)C1=O [Compound 45] | – | – | 7 nM | 1200 nM |
| CCN1C[C@@H]2CC(N3CCCC3)c3c(C(=O)NCc4ccc(F)cc4F)c(=O)c(O)c(n32)C1=O (single isomer, unassigned) [Compound 34] | – | – | 55 nM | 487 nM |
| CCN1C[C@H]2C[C@@H](N)c3c(C(=O)NCc4ccc(F)cc4F)c(=O)c(O)c(n32)C1=O [Compound 4] | 2 nM | 158 nM | – | – |
| CCN[C@H]1C[C@@H]2CN(CC)C(=O)c3c(O)c(=O)c(C(=O)NCc4ccc(F)c(Cl)c4F)c1n32 [Compound 15] | 13 nM | > 8400 nM | – | – |
| CCN1C[C@H]2C[C@@H](NC)c3c(C(=O)NCc4ccc(F)cc4F)c(=O)c(O)c(n32)C1=O [Compound 8] | 2 nM | 33 nM | – | – |
| CCN1C[C@H]2C[C@H](NCCOC)c3c(C(=O)NCc4ccc(F)cc4F)c(=O)c(O)c(n32)C1=O [Compound 27] | 17 nM | 968 nM | – | – |
| CCN1C[C@H]2C[C@@H](NS(=O)(=O)c3ccc(C)cc3)c3c(C(=O)NCc4ccc(F)cc4F)c(=O)c(O)c(n32)C1=O [Compound 52] | 22 nM | 310 nM | – | – |
| CCN[C@@H]1C[C@@H]2CN(CC)C(=O)c3c(O)c(=O)c(C(=O)NCc4c(F)cc(F)cc4F)c1n32 [Compound 14] | 6 nM | 47 nM | – | – |
| CCN1C[C@H]2C[C@H](NS(C)(=O)=O)c3c(C(=O)NCc4ccc(F)c(F)c4F)c(=O)c(O)c(n32)C1=O [Compound 49] | 11 nM | 12500 nM | – | – |
| CCCN1CC2CC(NS(C)(=O)=O)c3c(C(=O)NCc4ccc(F)cc4F)c(=O)c(O)c(n32)C1=O (single isomer, unassigned) [Compound 69] | – | – | 7 nM | 4560 nM |

| Structure (SMILES) | IC50 [1] | IC50 [2] | IC50 [3] | IC50 [4] |
| --- | --- | --- | --- | --- |
| CCN[C@H]1C[C@@H]2CN(CC)C(=O)c3c(O)c(=O)c(C(=O)NCc4cccc(F)c4F)c1n32 [Compound 17] | 14 nM | 1980 nM | – | – |
| CCN1C[C@H]2C[C@@H](NCCC(F)(F)F)c3c(C(=O)NCc4ccc(F)cc4F)c(=O)c(O)c(n32)C1=O [Compound 30] | 6 nM | 31 nM | – | – |
| CCN1C[C@H]2C[C@@H](NS(C)(=O)=O)c3c(C(=O)NCc4ccc(F)c(Cl)c4F)c(=O)c(O)c(n32)C1=O [Compound 50] | 2 nM | 24 nM | – | – |
| CCN1C[C@@H]2C[C@@H](N3CCCC3)c3c(C(=O)NCc4cccc(Cl)c4F)c(=O)c(O)c(n32)C1=O [Compound 42] | 5 nM | 16 nM | – | – |
| CCN[C@@H]1C[C@H]2CN(CC)C(=O)c3c(O)c(=O)c(C(=O)NCc4ccc(F)cc4F)c1n32 [Compound 9] | 1 nM | 11 nM | – | – |
| CCN1C[C@H]2C[C@@H](NCCOC)c3c(C(=O)NCc4ccc(F)cc4F)c(=O)c(O)c(n32)C1=O [Compound 28] | 6 nM | 21 nM | – | – |
| CCCN[C@H]1C[C@@H]2CN(CC)C(=O)c3c(O)c(=O)c(C(=O)NCc4ccc(F)cc4F)c1n32 [Compound 21] | 17 nM | 2290 nM | – | – |
| CCN1C[C@H]2C[C@H](N)c3c(C(=O)NCc4ccc(F)cc4F)c(=O)c(O)c(n32)C1=O [Compound 3] | 10 nM | 4500 nM | – | – |
| CCN[C@@H]1C[C@@H]2CN(CC)C(=O)c3c(O)c(=O)c(C(=O)NCc4cccc(F)c4F)c1n32 [Compound 18] | 10 nM | 25 nM | – | – |
| CCN1C[C@H]2C[C@H](NS(C)(=O)=O)c3c(C(=O)NCc4ccc(F)c(Cl)c4F)c(=O)c(O)c(n32)C1=O [Compound 51] | 9 nM | 17800 nM | – | – |
| CCN[C@H]1C[C@@H]2CN(CC)C(=O)c3c(O)c(=O)c(C(=O)NCc4ccc(F)cc4F)c1n32 [Compound 11] | 2 nM | 1100 nM | – | – |
| CCCN1CC2CC(NS(C)(=O)=O)c3c(C(=O)NCc4ccc(F)cc4F)c(=O)c(O)c(n32)C1=O (single isomer, unassigned) [Compound 70] | – | – | 20 nM | 1840 nM |
| CCN[C@H]1C[C@H]2CN(CC)C(=O)c3c(O)c(=O)c(C(=O)NCc4ccc(F)cc4F)c1n32 [Compound 10] | 1 nM | 170 nM | – | – |
| CCN1C[C@@H]2C[C@@H](N(C)C)c3c(C(=O)NCc4ccc(F)cc4F)c(=O)c(O)c(n32)C1=O [Compound 37] | – | – | 2 nM | 11 nM |
| CCCN1CC2CC(NS(C)(=O)=O)c3c(C(=O)NCc4ccc(F)cc4F)c(=O)c(O)c(n32)C1=O (single isomer, unassigned) [Compound 71] | – | – | 3 nM | 17 nM |
| [2H]C([2H])([2H])C([2H])([2H])N[C@H]1C[C@@H]2CN(CC)C(=O)c3c(O)c(=O)c(C(=O)NCc4ccc(F)cc4F)c1n32 [Compound 31] | 5 nM | 3720 nM | – | – |
| CCN1C[C@@H]2C[C@@H](N3CCC3)c3c(C(=O)NCc4cccc(Cl)c4F)c(=O)c(O)c(n32)C1=O [Compound 40] | 5 nM | 20 nM | – | – |
| CCN1C[C@H]2C[C@H](NS(=O)(=O)c3ccc(C)cc3)c3c(C(=O)NCc4ccc(F)cc4F)c(=O)c(O)c(n32)C1=O [Compound 53] | 34 nM | 2260 nM | – | – |
| CCN1C[C@H]2CC(N3CCCC3)c3c(C(=O)NCc4ccc(F)cc4F)c(=O)c(O)c(n32)C1=O (single isomer, unassigned) [Compound 35] | – | – | 26 nM | 62 nM |
| CCN[C@@H]1C[C@@H]2CN(CC)C(=O)c3c(O)c(=O)c(C(=O)NCc4ccc(F)c(Cl)c4F)c1n32 [Compound 16] | > 42000 nM | > 42000 nM | – | – |
| CCN1C[C@H]2C[C@H](NCCC(F)(F)F)c3c(C(=O)NCc4ccc(F)cc4F)c(=O)c(O)c(n32)C1=O [Compound 29] | 7 nM | 228 nM | – | – |
| CCCN1CC2CC(NS(C)(=O)=O)c3c(C(=O)NCc4ccc(F)cc4F)c(=O)c(O)c(n32)C1=O (single isomer, unassigned) [Compound 68] | – | – | 3 nM | 26 nM |
| CCN1C[C@@H]2C[C@@H](NCCCCl)c3c(C(=O)NCc4cccc(Cl)c4F)c(=O)c(O)c(n32)C1=O [Compound 41] | 2 nM | 22 nM | – | – |
